Assays:
[1] = biological target: SUR1-Y1353*/Kir6.2 (NBS2 of SUR1) (Homo sapiens, UniProt Q09428, Y1353X); experiment: FRET binding of TNP-nucleotides to ANAP-labeled KATP in unroofed membrane fragments; conditions: 10 mM unlabeled nucleotide
Protocol: Unroofed membranes were prepared using a modification of a protocol from the Heuser laboratory ([Heuser, 2000]; [Usukura et al., 2012]; [Zagotta et al., 2016]). Briefly, a coverslip containing adherent cells was removed from the cell culture medium and a small piece (0.5–1 cm) was broken off using jewelers forceps (#5) and washed in phosphate buffered saline (PBS, Thermo Fisher Scientific) diluted 1:3 in deionized water. Cells were exposed 3 × 10 s to a solution of 0.01% poly-L-lysine (Sigma) with intervening washes in diluted PBS to adhere them more firmly to the coverslips. The coverslip fragment was then placed in a 30 mm culture dish filled with 2–3 mL of 1/3X PBS and sonicated very briefly (~100 ms) using a probe sonicator (Vibra-cell; Newtown, CT), leaving behind adherent plasma membrane and sometimes additional cellular material. The unroofed fragments in our experiments were sometimes visible under bright-field illumination, a potential result of our modified ‘unroofing’ procedure. Morphologically, such cell fragments resemble the ‘partially unroofed’ cells identified by Usukura et al. ([Usukura et al., 2012]) Cells cultured on poly-D-lysine coated FluoroDishes were unroofed in diluted PBS with no additional poly-L-lysine treatment. This procedure yielded a higher percentage of completely unroofed plasma membranes (i.e. nearly invisible with brightfield illumination).
Unroofed membrane fragments were imaged directly on FluoroDishes (FD35-PDL-100, World Precision Instruments) or on broken coverslips placed in a FluoroDish (FD3510, World Precision instruments) using a Nikon TE2000-U microscope equipped with a 40x (S Fluor, 1.3 NA; Nikon, Kingston Upon Thames, UK) or 100x (Apo TIRF, 1.49 NA, Nikon) oil-immersion objective and low-fluorescence immersion oil (MOIL-30, Olympus; Southend-on-Sea, UK) or a 60x water immersion objective (Plan Apo VC, 1.20 NA, Nikon). ANAP was excited using a ThorLabs LED source (LED4D067) at 385 nm connected to the microscope using a liquid light guide in series with a 390/18 nm band-pass filter (MF390-18, ThorLabs; Newton, NJ) and MD416 dichroic (ThorLabs). For imaging, emitted light was filtered through a 479/40 nm band-pass filter (MF479-40, ThorLabs). GFP-tagged constructs were imaged using a similar setup with excitation at 490 nm, a 480/40 band-pass excitation filter (Chroma; Bellows Falls, VT), a DM505 dichroic mirror (Chroma), and 510 nm long-pass emission filter (Chroma). All images were acquired using a PIXIS 400B CCD camera (Princeton Instruments; Trenton, NJ). For spectroscopy, ANAP was excited as above, but emitted light was passed through a 400 nm long-pass filter (FEL0400, ThorLabs) and directed through the slit of an Isoplane 160 spectrometer (300 g/mm grating; Princeton Instruments) in series with the camera. The acquired images retained spatial information in the y-dimension, with the x-dimension replaced by wavelength (Figure 1—figure supplement 1a). Exposure times were typically 100 ms for brightfield images, 1–10 s for steady-state spectra and 1–5 s for time-course experiments.
To prevent accumulation of fluorescent nucleotides in the bath, FluoroDishes were perfused with either (in mM) 140 KCl, 20 NaCl, 10 MgCl2, 10 HEPES pH 7.2 with NaOH or 140 KCl, 20 NaCl, 1 EDTA, 10 HEPES pH 7.2 with NaOH using a peristaltic pump (Ismatec; Wertheim, Germany). Unroofed membranes were directly perfused with nucleotides using an 8-channel µFlow perfusion system (ALA Scientific Instruments; Farmingdale, NY). Solution change with the µFlow was rapid (τ = 0.73 s±0.02 s, n=5) as measured from single exponential fits to wash-out of 50 µM tetramethylrhodamine-5-maleimide (TMRM) after switching to a solution with no TMRM. TMRM was excited with a 565 nm LED with a D540/25X band-pass filter (Chroma) and DM565 dichroic mirror (Chroma). Emitted light was collected through a D605/55M band-pass filter (Chroma). […]

SUR1/Kir6.2-G334D [2] = biological target: T1, SUR1/Kir6.2-G334D (Homo sapiens, UniProt Q09428); experiment: Current activation in inside-out patches; format: biochemical
T1 construct: expressed in transfected cells; host or cells: HEK-293T
Protocol: (§1) Currents were recorded from inside-out membrane patches excised from transfected HEK-293T cells. Pipettes were pulled to a resistance of 1–5 MΩ and filled with an extracellular solution containing (in mM) 140 KCl, 1.2 MgCl2, 2.6 CaCl2, and 10 HEPES, pH 7.4 or 140 KCl, 1 EGTA, 10 HEPES, pH 7.3. The intracellular (bath) solutions contained either (in mM) 107 KCl, 2 MgCl2, 1 CaCl2, 10 EGTA, and 10 HEPES, pH 7.2 for experiments showing nucleotide-dependent activation or 140 KCl, 1 EDTA, 1 EGTA, 10 HEPES pH 7.3 for experiments showing nucleotide-dependent inhibition. Nucleotides were added as indicated. Patches were perfused with an 8-channel µFlow perfusion system. Data were acquired at a holding potential of −60 mV using an Axopatch 200B amplifier and Digidata 1322A digitizer with pClamp 9.0 software (Molecular Devices). Currents were digitized at 10 kHz and low-pass filtered at 1 kHz. KATP channels run down in excised patches (reviewed by Proks et al.) ([Proks et al., 2016]). For inhibitory concentration-response relationships, rundown was corrected by alternating test nucleotide solutions with nucleotide-free (control) solutions and expressing the test currents as a fraction of the average of the control currents before and after the test solution. […]

SUR1-T1397*/Kir6.2-G334D = system: T2, SUR1-T1397*/Kir6.2-G334D; experiment: Current activation in inside-out patches; format: biochemical, Homo sapiens
T2 construct: confirmed that >95% of SUR1-T1397* was full length; expressed in transfected cells; host or cells: HEK-293T
Protocol: as §1

SUR1-Y1353*/Kir6.2-G334D = experiment: Currents in inside-out patches; format: biochemical, Homo sapiens; conditions: co-expressed with pANAP and pERF1-E55D
Protocol: as §1

SUR1/Kir6.2-G334D [3] = biological target: T1, SUR1/Kir6.2-G334D; design: method as in Proks et al., 2010; conditions: ref Proks et al., 2010; read-out: EC50 for activation of currents; cited from earlier work
[4] = system: SUR1/Kir6.2-G334D with K1384A (K2A) in NBS2; design: method as in Proks et al., 2014; conditions: ref Proks et al., 2014; cited from earlier work

T1 sequence (Q09428 whole entry, stated change not applied): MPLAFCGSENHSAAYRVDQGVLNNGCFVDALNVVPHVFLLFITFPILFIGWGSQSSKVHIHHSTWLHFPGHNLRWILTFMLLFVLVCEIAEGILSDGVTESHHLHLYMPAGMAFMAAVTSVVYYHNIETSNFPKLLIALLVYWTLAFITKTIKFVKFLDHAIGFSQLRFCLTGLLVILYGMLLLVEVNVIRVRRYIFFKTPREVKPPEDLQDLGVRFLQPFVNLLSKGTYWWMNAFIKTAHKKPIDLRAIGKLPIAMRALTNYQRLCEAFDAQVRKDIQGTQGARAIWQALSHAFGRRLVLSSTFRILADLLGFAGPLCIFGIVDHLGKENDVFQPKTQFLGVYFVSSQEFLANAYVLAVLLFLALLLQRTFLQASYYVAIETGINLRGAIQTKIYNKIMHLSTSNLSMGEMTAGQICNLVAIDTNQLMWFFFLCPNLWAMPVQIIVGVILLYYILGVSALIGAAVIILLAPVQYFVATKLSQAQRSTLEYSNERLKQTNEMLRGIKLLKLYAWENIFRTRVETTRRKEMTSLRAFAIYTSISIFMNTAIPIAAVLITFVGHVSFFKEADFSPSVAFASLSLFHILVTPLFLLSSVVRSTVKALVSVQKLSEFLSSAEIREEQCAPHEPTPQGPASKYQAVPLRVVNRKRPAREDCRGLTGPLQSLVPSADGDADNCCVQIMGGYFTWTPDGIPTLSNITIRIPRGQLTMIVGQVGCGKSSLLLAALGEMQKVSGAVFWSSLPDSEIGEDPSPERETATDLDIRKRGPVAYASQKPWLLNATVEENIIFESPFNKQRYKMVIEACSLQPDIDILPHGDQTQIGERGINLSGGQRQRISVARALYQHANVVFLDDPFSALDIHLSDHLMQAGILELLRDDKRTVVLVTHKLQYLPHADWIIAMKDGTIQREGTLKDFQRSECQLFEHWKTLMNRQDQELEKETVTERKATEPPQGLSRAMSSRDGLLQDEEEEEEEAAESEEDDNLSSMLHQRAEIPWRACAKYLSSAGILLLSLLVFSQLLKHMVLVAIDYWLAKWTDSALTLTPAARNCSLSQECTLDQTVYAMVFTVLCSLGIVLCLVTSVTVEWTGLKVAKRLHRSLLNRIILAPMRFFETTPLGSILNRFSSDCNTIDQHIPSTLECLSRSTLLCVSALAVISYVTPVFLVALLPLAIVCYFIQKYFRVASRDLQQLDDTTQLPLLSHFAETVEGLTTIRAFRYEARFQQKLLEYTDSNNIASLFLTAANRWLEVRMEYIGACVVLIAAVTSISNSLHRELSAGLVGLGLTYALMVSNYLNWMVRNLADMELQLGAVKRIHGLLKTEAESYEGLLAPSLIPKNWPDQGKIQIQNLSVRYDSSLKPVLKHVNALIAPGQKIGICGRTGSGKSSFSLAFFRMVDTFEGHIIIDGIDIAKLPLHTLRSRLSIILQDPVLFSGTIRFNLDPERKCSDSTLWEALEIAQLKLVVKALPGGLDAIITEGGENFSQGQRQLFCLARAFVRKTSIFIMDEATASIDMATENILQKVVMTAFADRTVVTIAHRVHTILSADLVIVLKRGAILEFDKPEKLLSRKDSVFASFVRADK
T1 sequence (Q14654 whole entry G334D partner): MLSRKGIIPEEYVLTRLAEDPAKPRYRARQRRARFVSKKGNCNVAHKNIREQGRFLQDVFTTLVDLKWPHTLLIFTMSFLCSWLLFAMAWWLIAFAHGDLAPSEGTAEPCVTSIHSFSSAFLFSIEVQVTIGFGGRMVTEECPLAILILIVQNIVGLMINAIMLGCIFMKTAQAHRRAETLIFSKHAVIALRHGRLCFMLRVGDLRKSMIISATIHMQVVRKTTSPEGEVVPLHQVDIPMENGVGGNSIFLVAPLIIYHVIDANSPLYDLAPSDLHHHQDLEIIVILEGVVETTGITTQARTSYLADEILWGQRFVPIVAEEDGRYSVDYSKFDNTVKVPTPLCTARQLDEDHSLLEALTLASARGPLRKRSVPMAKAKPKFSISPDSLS

In the case of Nc1ncnc2c1ncn2[C@@H]1O[C@H](COP(=O)([O-])OP(=O)([O-])O)[C@@H](O)[C@H]1O.[Mg+2] [MgADP], the “ANAP fluorescence intensity relative to the original peak” value [1] is reported as 101 ± 2%, the effect on currents (SUR1/Kir6.2-G334D [2]) is reported as “activated” and the EC50 (SUR1-T1397*/Kir6.2-G334D; Equation 5 fit to combined data) is reported as 38.6 µM. For the same compound, the EC50 (SUR1-T1397*/Kir6.2-G334D; mean ± SEM of fits of equation 5 to individual experiments) was 44.4 ± 14.5 µM, the effect on currents (SUR1-Y1353*/Kir6.2-G334D) was “no activation” and the EC50 (SUR1/Kir6.2-G334D [3]) was 7.7 µM. For the same compound, the “shift of concentration dependence of activation to higher concentrations by K2A mutation” value [4] was greater than 20 fold.

— PMC6400584, “Activation mechanism of ATP-sensitive K^+ channels explored with real-time nucleotide binding” (eLife, 2019)
